The results in this text go back to patent publication US6004950A, “2-aminopyridines as inhibitors of cyclooxygenase-2” (Merck Frosst Canada, Inc., priority 1998, dated 1999).

Each structure is given as a SMILES string. A value given as a limit tells only on which side of the number the result lay.

Experiment [1] concerns the target T1, COX-1 (Homo sapiens, UniProt P23219). Briefly: Assay of COX-1 activity from U937 cell microsomes. Format: biochemical. More on the design: Assay of COX-1 Activity from U937 cell microsomes; endogenous in cells; host or cells: U937 cells, 100,000×g microsomal pellet. Here is the method:
Assay of COX-1 Activity from U937 cell microsomes
U 937 cells are pelleted by centrifugation at 500×g for 5 min and washed once with phosphate-buffered saline and repelleted. Cells are resuspended in homogenization buffer consisting of 0.1 M Tris-HCl, pH 7.4, 10 mM EDTA, 2 μg/ml leupeptin, 2 μg/ml soybean trypsin inhibitor, 2 μg/ml aprotinin and 1 mM phenyl methyl sulfonyl fluoride. The cell suspension is sonicated 4 times for 10 sec and is centrifuged at 10,000×g for 10 min at 4° C. The supernatant is centrifuged at 100,000×g for 1 hr at 4° C. The 100,000×g microsomal pellet is resuspended in 0.1 M Tris-HCl, pH 7.4, 10 mM EDTA to approximately 7 mg protein/ml and stored at -80° C.
Microsomal preparations are thawed immediately prior to use, subjected to a brief sonication, and then diluted to a protein concentration of 125 μg/ml in 0.1 M Tris-HCl buffer, pH 7.4 containing 10 mM EDTA, 0.5 mM phenol, 1 mM reduced glutathione and 1 μM hematin. Assays are performed in duplicate in a final volume of 250 μl. Initially, 5 μl of DMSO vehicle or drug in DMSO are added to 20 μl of 0.1 M Tris-HCl buffer, pH 7.4 containing 10 mM EDTA in wells of a 96-deepwell polypropylene titre plate. 200 μl of the microsomal preparation are then added and pre-incubated for 15 min at room temperature before addition of 25 μl of […] arachidonic acid in […] Tris-HCl and 10 mM EDTA, pH 7.4. Samples are incubated for 40 min at room temperature and the reaction is stopped by the addition of 25 μl of 1 N HCl. Samples are neutralized with 25 μl of 1 N NaOH prior to quantitation of PGE2 content by radioimmunoassay (Dupont-NEN or Amersham assay kits). Cyclooxygenase activity is defined as the difference between PGE2 levels in samples incubated in the presence of arachidonic acid and ethanol vehicle.
In the assay, inhibition is determined by measuring the amount of prostaglandin E2 (PGE2) synthesized in the presence of arachidonic acid, cyclooxygenase-1 or cyclooxygenase-2 and a putative inhibitor.

Experiment [2] deals with T2, COX-2 (Homo sapiens, UniProt P35354).
T2 construct: incubation of human whole blood with LPS, which induces COX-2; endogenous in cells; host or cells: heparinized fresh whole blood of human volunteers, incubated with LPS for 24 h
T2 sequence (P35354 18-604): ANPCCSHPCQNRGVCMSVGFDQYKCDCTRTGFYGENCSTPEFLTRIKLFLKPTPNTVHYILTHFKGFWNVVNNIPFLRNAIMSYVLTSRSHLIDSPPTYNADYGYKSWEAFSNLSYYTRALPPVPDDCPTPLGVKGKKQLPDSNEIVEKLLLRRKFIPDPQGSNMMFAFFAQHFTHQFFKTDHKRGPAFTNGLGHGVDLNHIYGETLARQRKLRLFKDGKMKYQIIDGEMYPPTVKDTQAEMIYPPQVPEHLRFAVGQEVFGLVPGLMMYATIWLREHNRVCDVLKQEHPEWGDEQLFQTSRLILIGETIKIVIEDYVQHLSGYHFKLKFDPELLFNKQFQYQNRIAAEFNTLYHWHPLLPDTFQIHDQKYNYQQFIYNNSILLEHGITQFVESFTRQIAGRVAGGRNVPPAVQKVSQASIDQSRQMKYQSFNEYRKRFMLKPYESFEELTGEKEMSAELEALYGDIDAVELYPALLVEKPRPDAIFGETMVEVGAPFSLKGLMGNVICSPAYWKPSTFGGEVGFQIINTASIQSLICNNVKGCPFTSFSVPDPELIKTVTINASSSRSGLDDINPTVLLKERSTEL
In words: Whole cell assay for COX-2 using CHO transfected cell line CHO[hCOX-2], inhibition of PGE2 synthesis. The class given is cell-based. The following applies: CHO[hCOX-2] cells, 10 μM AA, PGE2; read-out: COX-2 (IC50 mM) CHO.

In experiment [3] the target is T2, COX-2. Briefly: Human whole blood assay, COX-2 (LPS-induced PGE2 production). Format: cell-based. The following applies: human whole blood, LPS-induced PGE2, 24 h; read-out: COX-2 (IC50 mM) HWB. An excerpt: (§1) As well, platelets in whole blood contain a large amount of the COX-1 enzyme. Immediately following blood clotting, platelets are activated through a thrombin-mediated mechanism. This reaction results in the production of thromboxane B2 (TxB2) via activation of COX-1. Thus, the effect of test compounds on TxB2 levels following blood clotting can be examined and used as an index for COX-1 activity. Therefore, the degree of selectivity by the test compound can be determined by measuring the levels of PGE2 after LPS induction (COX-2) and TxB2 following blood clotting (COX-1) in the same assay.
A. COX-2 (LPS-induced PGE2 production)
Fresh blood is collected in heparinized tubes by venipuncture from both male and female volunteers. The subjects have no apparent inflammatory conditions and have not taken any NSAIDs for at least 7 days prior to blood collection. Plasma is immediately obtained from a 2 mL blood aliquot to use as blank (basal levels of PGE2).

Experiment [4] deals with T1, COX-1. In words: Human whole blood assay, COX-1 (clotting-induced TxB2 production). The class given is cell-based. As to conditions: clotting-induced TxB2, 1 h, read-out: COX-1 (IC50 mM) HWB. More on the design: platelets in whole blood contain a large amount of the COX-1 enzyme; endogenous in cells; host or cells: fresh human whole blood without anticoagulant (platelets), clotted 1 h at 37° C. Here is the method:
as §1, with “Human whole blood provides a protein and cell-rich milieu appropriate for the study of biochemical efficacy of anti-inflammatory compounds such as selective COX-2 inhibitors. […] This is consistent with the observation that COX-2 inhibitors have no effect on PGE2 production in normal blood. These inhibitors are active only after incubation of human whole blood with LPS, which induces COX-2. This assay can be used to evaluate the inhibitory effect of selective COX-2 inhibitors on PGE2 production. As” for “As”
B. COX-1 (Clotting-induced TxB2 production)
Fresh blood is collected into vacutainers containing no anticoagulants. […] The tubes are vortexed and incubated at 37° C. for 1 hour to allow blood to clot. At the end of incubation, serum is obtained by centrifugation (12,000×g for 5 min.). […]

The mark [5] stands for this setting: U937 cell microsomes, PGE2, read-out: COX-1 (IC50 mM) U-937.

T1 sequence (P23219 24-599): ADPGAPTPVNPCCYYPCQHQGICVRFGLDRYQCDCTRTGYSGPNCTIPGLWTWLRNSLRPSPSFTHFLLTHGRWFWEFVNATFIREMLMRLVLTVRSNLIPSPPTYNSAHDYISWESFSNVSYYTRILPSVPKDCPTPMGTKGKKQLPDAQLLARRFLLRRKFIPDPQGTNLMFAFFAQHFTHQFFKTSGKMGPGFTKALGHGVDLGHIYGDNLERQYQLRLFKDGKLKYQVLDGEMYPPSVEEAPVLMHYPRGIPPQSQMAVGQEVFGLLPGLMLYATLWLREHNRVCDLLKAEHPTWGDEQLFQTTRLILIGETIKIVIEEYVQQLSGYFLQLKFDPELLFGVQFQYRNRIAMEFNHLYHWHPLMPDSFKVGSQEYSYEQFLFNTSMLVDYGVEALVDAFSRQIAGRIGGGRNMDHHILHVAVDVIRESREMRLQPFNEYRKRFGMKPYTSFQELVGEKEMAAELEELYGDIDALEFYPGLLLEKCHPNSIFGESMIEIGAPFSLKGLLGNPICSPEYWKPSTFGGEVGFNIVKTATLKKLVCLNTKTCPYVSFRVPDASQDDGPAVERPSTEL

As to `CS(=O)(=O)c1ccc(-c2cc(C(F)(F)F)cnc2N2CCCCC2)cc1` [Example 2, 3-(4-Methylsulfonyl)phenyl-2-piperidin-1-yl-5-trifluoromethylpyridine], the IC50 at COX-1 [1] (setting [5]) was 0.003 mM; at COX-2 [2], 4 nM; on COX-2 [3] it was 0.0003 mM; on COX-1 [4], > 0.1 mM.

Consider `CS(=O)(=O)c1ccc(-c2cc(C(F)(F)F)cnc2N2CCC(O)CC2)cc1` [Example 22, 3-(4-Methylsulfonyl)phenyl-2-(4-hydroxy)piperidin-1-yl-5-trifluoromethylpyridine], for which the figures for the IC50 on COX-1 [1] (setting [5]), at COX-2 [2] and on COX-2 [3] were > 0.01 mM, 30 nM and 0.0108 mM, respectively.

On to `CS(=O)(=O)c1ccc(-c2cc(C(F)(F)F)cnc2N2CCCC(O)C2)cc1` (stereo not shown) [Example 23, 3-(4-Methylsulfonyl)phenyl-2-(3-hydroxy)piperidin-1-yl-5-trifluoromethylpyridine], for which the values for the IC50 against COX-1 [1], at COX-2 [2] and on COX-2 [3] were > 0.01 mM, 30 nM and 0.0075 mM, respectively.

Take `CS(=O)(=O)c1ccc(-c2cc(C(F)(F)F)cnc2N2CCC(F)(F)CC2)cc1` [Example 24, 2-(4,4-Difluoro)piperidin-1-yl-3-(4-methylsulfonyl)phenyl-5-trifluoromethylpyridine]: the 50% inhibitory concentration (IC50) was > 0.01 mM on COX-1 [1] (setting [5]), 20 nM at COX-2 [2] and 0.0103 mM on COX-2 [3].

Take `CS(=O)(=O)c1ccc(-c2cc(C(F)(F)F)cnc2N2CCCC(F)(F)C2)cc1` [Example 25, 2-(3,3-Difluoro)piperidin-1-yl-3-(4-methylsulfonyl)phenyl-5-trifluoromethylpyridine]: the IC50 at COX-1 [1] (setting [5]) is > 0.01 mM; on COX-2 [2] it was 80 nM; at COX-2 [3] it was 0.0047 mM.

With `CS(=O)(=O)c1ccc(-c2cc(C(F)(F)F)cnc2N2CCC(F)CC2)cc1` [Example 26, 2-(4-Fluoro)piperidin-1-yl-3-(4-methylsulfonyl)phenyl-5-trifluoromethylpyridine], the IC50 is 0.003 to 0.01 mM at COX-1 [1] (setting [5]), 10 nM at COX-2 [2] and 0.0017 mM at COX-2 [3].

As to `CS(=O)(=O)c1ccc(-c2cc(C(F)(F)F)cnc2N2CCOCC2)cc1` [Example 27, 3-(4-Methylsulfonyl)phenyl-2-morpholin-4-yl-5-trifluoromethylpyridine], the IC50 was > 0.01 mM at COX-1 [1] (setting [5]), 60 nM at COX-2 [2] and 0.0036 mM on COX-2 [3].

Turning to `CS(=O)(=O)c1ccc(-c2cc(C(F)(F)F)cnc2N2CCSCC2)cc1` [Example 28, 3-(4-Methylsulfonyl)phenyl-2-thiomorpholin-4-yl-5-trifluoromethylpyridine], the results for the IC50 at COX-1 [1] (setting [5]), on COX-2 [2] and at COX-2 [3] were 0.003 to 0.01 mM, 30 nM and 0.0014 mM, respectively.

As a reminder, the IC50 is the concentration that gives 50% inhibition.
